Measurements from US20240024403A1, “Compositions and Methods for Managing Weight” (Unigen, Inc., priority 2012, published 2024).

Experiment: High fat diet induced obesity (DIO) mouse model
Assay type: in vivo, C57CL/6J mice
Details: for Total Body Weight / Body Weight: in g (unit assumed)
Description: C57CL/6J mice aged 4-6 weeks (Korea Research Institute of Bioscience & Biotechnology, Ohchang, Korea) were housed in Polycarbonate cages (five mice per cage) in a room with a 12 hr:12 hr light-dark cycle and an ambient temperature of 24° C. All the mice were fed a commercial chow diet for 1 week after arrival in the animal facility. Mice were then divided into normal and obesity groups and fed with normal diet (ND) and high fat diets (HFD) respectively. The HFD group was divided into multiple treatment groups: a high fat diet vehicle group (HFD), an orlistat (purchased as OTC drug Alli®) positive control treatment group (ORI, 40 mg/kg of animal weight, 2 times/day) and optionally a sibutramine positive control treatment group (10 mg/kg, 1 time/day). The HFD contained 340 g of fat/kg of HFD (310 g lard plus 30 g soybean oil; Harlan Laboratories, USA). The HFD was formulated to provide 60% of the total energy generated by the diet from fat by replacing carbohydrate energy with lard and soybean oil, whereas the normal diet (ND) group was fed a diet providing only 18% of the total diet energy from fat(Harlan Laboratories, USA).
Body weight was measured once each week and feed intake was measured twice per week. At the end of the experimental period, following a 12 hr. fasting period, the animals were anesthetized with ether, and blood was drawn from the abdominal vein. Liver and kidney and adipose tissues (epididymal, retroperitoneal, perirenal adipose tissues) were removed from each animal, rinsed with physiological saline, and weighed. Serum concentrations of glucose, total cholesterol, triglycerides, and LDL-cholesterol were determined using automatic analyzer (INTEGRA 400, Roche, Germany). Statistical significance of test results was measured using the Student's t-test.

[1] = week 3, mice fed a high fat diet, Mutamba fractions 250 mg/kg oral 2 times per day, mean
[2] = week 4, DIO mice, oral twice daily, mg/kg/day: ORI 40, Combo (Composition 1A) 800, Magnolia 100, Yerba Mate 500, Morus 200
[3] = week 4, DIO mice, combination (5:1) 1200 mg/kg twice a day by gavage, group mean
[4] = week 4, mice fed a high fat diet, Mutamba fractions 250 mg/kg oral 2 times per day, mean
[5] = week 5, DIO mice, oral twice daily, mg/kg/day: ORI 40, Combo (Composition 1A) 800, Magnolia 100, Yerba Mate 500, Morus 200
[6] = week 5, DIO mice, combination (5:1) 1200 mg/kg twice a day by gavage, group mean
[7] = week 5, mice fed a high fat diet, Mutamba fractions 250 mg/kg oral 2 times per day, mean
[8] = week 6, DIO mice, oral twice daily, mg/kg/day: ORI 40, Combo (Composition 1A) 800, Magnolia 100, Yerba Mate 500, Morus 200
[9] = week 6, DIO mice, combination (5:1) 1200 mg/kg twice a day by gavage, group mean
[10] = week 6, mice fed a high fat diet, Mutamba fractions 250 mg/kg oral 2 times per day, mean
[11] = week 7, DIO mice, oral twice daily, mg/kg/day: ORI 40, Combo (Composition 1A) 800, Magnolia 100, Yerba Mate 500, Morus 200
[12] = week 7, DIO mice, combination (5:1) 1200 mg/kg twice a day by gavage, group mean
[13] = week 7, mice fed a high fat diet, Mutamba fractions 250 mg/kg oral 2 times per day, mean
[14] = week 8, DIO mice, oral twice daily, mg/kg/day: ORI 40, Combo (Composition 1A) 800, Magnolia 100, Yerba Mate 500, Morus 200
[15] = week 8, mice fed a high fat diet, Mutamba fractions 250 mg/kg oral 2 times per day, mean

What does the source list for `CCCCCCCCCCC[C@@H](C[C@@H]1OC(=O)[C@H]1CCCCCC)OC(=O)[C@H](CC(C)C)NC=O` [ORI, orlistat]?
Total Body Weight (week 3, DIO mice, combination (5:1) 1200 mg/kg twice a day by gavage, group mean): 35.12; Total Body Weight (week 3, ORI 40 mg/kg, DIO mice (Table 52)): 37.41; Total Body Weight (week 3, ORI 40 mg/kg, DIO mice): 35.66; Body Weight Gain (week 3, ORI 40 mg/kg, mice fed high fat diet): −6.70; Body Weight Gain [1]: −2.63; Body Weight [1]: 37.14; Weight Gain (week 3, orlistat 40 mg/kg oral): −5.27; Weight Gain [2]: −3.84; Total Body Weight [2]: 36.38; Body Weight Gain (week 4, DIO mice, SIB 10 mg/kg, ORI 40 mg/kg, Mutamba extract 32 (G1) 1000 mg/kg/day oral, mean): −2.35; Body Weight Gain (week 4, DIO mice, SIB 10 mg/kg, ORI 40 mg/kg, Mutamba extract 33-2 G1 1000 mg/kg, mean): −1.28; Weight Gain (week 4, DIO mice, combination (1:1) 2000 mg/kg twice a day, group mean): −2.61; Weight Gain [3]: −2.61; Total Body Weight [3]: 35.84; Total Body Weight (week 4, ORI 40 mg/kg, DIO mice (Table 52)): 37.60; Total Body Weight (week 4, ORI 40 mg/kg, DIO mice): 37.28; Body Weight Gain (week 4, ORI 40 mg/kg, mice fed high fat diet): −5.01; Body Weight Gain [4]: −1.28; Body Weight [4]: 38.49; Weight Gain (week 4, orlistat 40 mg/kg oral): −3.47; Weight Gain [5]: −2.57; Total Body Weight [5]: 37.65; Body Weight Gain (week 5, DIO mice, SIB 10 mg/kg, ORI 40 mg/kg, Mutamba extract 32 (G1) 1000 mg/kg/day oral, mean): −1.84; Body Weight Gain (week 5, DIO mice, SIB 10 mg/kg, ORI 40 mg/kg, Mutamba extract 33-2 G1 1000 mg/kg, mean): 0.43; Weight Gain (week 5, DIO mice, combination (1:1) 2000 mg/kg twice a day, group mean): −2.04; Weight Gain [6]: −2.04; Total Body Weight [6]: 36.41; Total Body Weight (week 5, ORI 40 mg/kg, DIO mice (Table 52)): 38.12; Total Body Weight (week 5, ORI 40 mg/kg, DIO mice): 38.57; Body Weight Gain (week 5, ORI 40 mg/kg, mice fed high fat diet): −3.81; Body Weight Gain [7]: 0.43; Body Weight [7]: 40.19; Weight Gain (week 5, orlistat 40 mg/kg oral): −2.34; Weight Gain [8]: −1.47; Total Body Weight [8]: 38.75; Body Weight Gain (week 6, DIO mice, SIB 10 mg/kg, ORI 40 mg/kg, Mutamba extract 32 (G1) 1000 mg/kg/day oral, mean): 0.08; Body Weight Gain (week 6, DIO mice, SIB 10 mg/kg, ORI 40 mg/kg, Mutamba extract 33-2 G1 1000 mg/kg, mean): 3.52; Weight Gain (week 6, DIO mice, combination (1:1) 2000 mg/kg twice a day, group mean): −1.65; Weight Gain [9]: −1.65; Total Body Weight [9]: 36.80; Total Body Weight (week 6, ORI 40 mg/kg, DIO mice (Table 52)): 40.04; Total Body Weight (week 6, ORI 40 mg/kg, DIO mice): 40.03; Body Weight Gain (week 6, ORI 40 mg/kg, mice fed high fat diet): −2.36; Body Weight Gain [10]: 3.52; Body Weight [10]: 43.28; Weight Gain (week 6, orlistat 40 mg/kg oral): −1.08; Weight Gain [11]: −0.26; Total Body Weight [11]: 39.96; Body Weight Gain (week 7, DIO mice, SIB 10 mg/kg, ORI 40 mg/kg, Mutamba extract 32 (G1) 1000 mg/kg/day oral, mean): 1.81; Body Weight Gain (week 7, DIO mice, SIB 10 mg/kg, ORI 40 mg/kg, Mutamba extract 33-2 G1 1000 mg/kg, mean): 3.72; Weight Gain [12]: −0.07; Total Body Weight [12]: 38.38; Total Body Weight (week 7, ORI 40 mg/kg, DIO mice (Table 52)): 41.77; Total Body Weight (week 7, ORI 40 mg/kg, DIO mice): 40.91; Body Weight Gain (week 7, ORI 40 mg/kg, mice fed high fat diet): −1.42; Body Weight Gain [13]: 3.72; Body Weight [13]: 43.49; Weight Gain (week 7, orlistat 40 mg/kg oral): 0.02; Weight Gain [14]: −0.23; Total Body Weight [14]: 39.99; Body Weight Gain (week 8, DIO mice, SIB 10 mg/kg, ORI 40 mg/kg, Mutamba extract 32 (G1) 1000 mg/kg/day oral, mean): 2.10; Body Weight Gain (week 8, DIO mice, SIB 10 mg/kg, ORI 40 mg/kg, Mutamba extract 33-2 G1 1000 mg/kg, mean): 5.13; Total Body Weight (week 8, ORI 40 mg/kg, DIO mice (Table 52)): 42.06; Body Weight Gain [15]: 5.13; Body Weight [15]: 44.90
